One experiment deals with T1, AtPPO1 Y361T (Arabidopsis thaliana, UniProt P55826, Y361T).
T1 construct: expressed in transfected cells; host or cells: E. coli BL21(DE3) hemG (pET24a, T7 promoter)
T1 sequence (P55826 35-537 Y361T): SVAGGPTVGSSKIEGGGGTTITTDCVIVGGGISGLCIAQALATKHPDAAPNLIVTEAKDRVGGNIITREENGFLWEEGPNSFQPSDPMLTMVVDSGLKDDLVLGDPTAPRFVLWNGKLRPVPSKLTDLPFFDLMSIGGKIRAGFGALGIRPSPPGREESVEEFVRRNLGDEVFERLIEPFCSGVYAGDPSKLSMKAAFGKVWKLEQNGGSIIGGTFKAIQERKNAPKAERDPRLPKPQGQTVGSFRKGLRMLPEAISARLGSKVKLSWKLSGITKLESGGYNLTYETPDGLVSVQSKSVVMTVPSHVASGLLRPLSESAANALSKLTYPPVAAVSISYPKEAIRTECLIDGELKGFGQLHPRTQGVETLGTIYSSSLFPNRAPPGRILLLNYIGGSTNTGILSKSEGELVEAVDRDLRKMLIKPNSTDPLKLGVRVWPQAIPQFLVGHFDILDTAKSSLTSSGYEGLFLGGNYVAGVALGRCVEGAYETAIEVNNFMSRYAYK
Description: E. coli hemG growth inhibition by herbicide, AtPPO1 variant. Type of experiment: cell-based. The conditions noted are these: read-out: percentage growth inhibition. The procedure, abridged: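 E. coli BL21(DE3) ΔhemG::CmR complemented by AtPPO1 variants (pET24a, T7, E. coli codon-optimised); TB + 0.1 mM IPTG, 1:100 inoculum; 6.25 ppm herbicide 0/E or 0.78 ppm herbicide B vs DMSO; 24 h, 37° C, 250 rpm; OD600 at 24 h → % growth inhibition.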

In experiment [1] the test system is tobacco plants containing pBin TMV AtPPO1. Description: herbicide damage to transgenic tobacco. Type of experiment: in vivo. The settings on record: 120 g ai/ha, per transgenic event, 0 no visible damage, 100 complete death. An excerpt: Populations of transgenic tobacco comprising 20-30 transgenic events per plant transformation constructs are generated as described in Example 4. These lines were clonally propagated and 1 clone per event was sprayed with PPO herbicides to confirm the herbicide resistance.
Herbicidal damage is visually assessed across the population and a herbicide damage score given at 7 and 14 days. A score of 0 indicates no visible damage or stunting whereas a score of 100 indicates a complete death of the plant. 20 transgenic events (i.e. individual transgenic plants) from each GM tobacco line are transplanted to soil 1 week prior to spraying with PPO inhibiting compounds. WT tobacco is included as a control.
Herbicidal damage was visually assessed across the population and a herbicide damage score given at 7 and 14 days. A score of 0 indicates no visible damage or stunting whereas a score of 100 indicates a complete death of the plant. 20 transgenic events (i.e. individual transgenic plants) from each GM tobacco line were transplanted to soil 1 week prior to spraying with PPO inhibiting compounds. WT tobacco is included as a control.

Each structure is given as a SMILES string. Values joined by “and” are separate entries in the source; they are usually repeats but may differ in a detail not shown here. Identical values can stand only once.

For `C#CCN1C(=O)C(F)(F)Oc2cc(F)c(-n3c(=O)n(C)c(=S)n(C)c3=O)cc21` [Herbicide B, trifludimoxazin], the inhibition at 0.78 ppm at AtPPO1 Y361T worked out at 37%. Moreover, the percentage of damage was 100% and 99% and 87% and 97% in experiment [1] (7 DAT); 100% and 80% and 98% and 99% in experiment [1] (14 DAT).
With `CCOC(=O)C1(C)CC(c2cc(-n3c(=O)cc(C(F)(F)F)n(C)c3=O)c(F)cc2Cl)=NO1` (stereo not drawn) [Herbicide C, 3-(2-chloro-4-fluoro-5-(3-methyl-2,6-dioxo-4-trifluoromethyl-3,6-dihydropyrimidin-1(2H)-yl)phenyl)-5-methyl-4,5-dihydroisoxazole-5-carboxylic acid ethyl ester], the percentage of damage in experiment [1] (7 DAT) is 100% and 95% and 94% and 97%; in experiment [1] (14 DAT), 100% and 90% and 95% and 97% and 99%.
Regarding `CCOC(=O)[C@]1(C)CC(c2cc(-n3c(=O)n(C)c(=S)n(C)c3=O)c(F)cc2Cl)=NO1` [Herbicide D, ethyl (5S)-3-[2-chloro-5-(3,5-dimethyl-2,6-dioxo-4-thioxo-1,3,5-triazinan-1-yl)-4-fluoro-phenyl]-5-methyl-4H-isoxazole-5-carboxylate], the inhibition at 6.25 ppm on AtPPO1 Y361T turned out to be 44%. Moreover, the percentage of damage in experiment [1] (7 DAT) was 100% and 95% and 99% and 97% and 65% and 92% and 98%; in experiment [1] (14 DAT) it was 100% and 95% and 99% and 75% and 97% and 96%.
For `CC(C)N(C)S(=O)(=O)NC(=O)c1cc(-n2c(=O)cc(C(F)(F)F)n(C)c2=O)c(F)cc1Cl` [Herbicide E, saflufenacil], on AtPPO1 Y361T, the inhibition at 6.25 ppm was found to be 37%.

The values above are taken from patent US20260297542A1, “HERBICIDE RESISTANT PLANTS” (SYNGENTA CROP PROTECTION AG, priority 2023, published 2026).
